Values of other authors as cited in article PMC13179673 (European journal of pharmaceutical sciences : official …, 2025).

Assays:
[1] = biological pH at 37°C
[2] = system: OHT rabbit eyes; parameters: method as in Behar-Cohen et al., 1996; details: eyedrop, ref Behar-Cohen et al., 1996

[NH-]c1c[n+](N2CCOCC2)no1 [SIN-1, linsidomine]
half-life [1]: < 1 h | duration of IOP-lowering effect [2]: ≤ 3 h
